Data taken from US20090241222A1, “TANDEM REAPEAT DNA CONSTRUCTS PRODUCING PROTEINS THAT ATTACK PLANT PATHOGENIC VIRUSES, FUNGI, AND BACTERIA BY DISRUPTING TRANSCRIPTION FACTORS ESSENTIAL FOR REPLICATION THEREOF IN PLANTS” (priority 2008, published 2009).
Entries after “also recorded” stand apart in the source; their conditions may differ. Where two headings read alike, the source gives them in different places.

What was measured:
[1] = test system: Mammalian rotaviruses; conditions: millimolar concentrations; cited from earlier work
[2] = test system: mammalian retroviruses; conditions: millimolar concentrations; cited from earlier work
[3] = test system: Arabidopsis thaliana; conditions: cited from earlier work
[4] = test system: SV40 transformed BALB-3T3 cells; conditions: cited from earlier work
[5] = test system: tomato spotted wilt virus; conditions: tomato and tobacco plants; cited from earlier work
[6] = test system: Orobanche ramosa; conditions: Arabidopsis thaliana pre-treated with FU; cited from earlier work
[7] = biological target: T1, recombinant MPS-1 (CCCC zinc finger) (Homo sapiens, UniProt P42677); assay: Gel shift assay and radioactive Zn65 removal from recombinant MPS-1; type: biochemical
T1 construct: made in house
Description: MPS-1 is a ubiquitous tumor marker and cell growth stimulator and is described in detail in the inventors' U.S. Pat. No. 5,243,041. MPS-1 has one zinc finger domain of the type CCCC. […] This is detected by a change in the electrophoretic mobility of MPS-1 under non-denaturing conditions. These experiments indicate that picolinic acid and derivatives should remove zinc and denature various types of zinc finger, zinc ring proteins, or other types of ZF motifs whether known or heretofore undiscovered, including animal or plant viral proteins such as nucleocapsid proteins of retrovirus or the nucleocapsid proteins of Geminivirus. Furthermore, the inventors have determined that any chemical compound, whether known or heretofore undiscovered, that will remove the zinc (or other metal) and denature the proteins or that will form a ternary complex (protein-zinc-chelator) can be effective as an antiviral agent, with nontoxic effects, provided that the agent conforms with certain specific structural requirements.

[8] = test system: HSV-1; conditions: tissue culture and animals; cited from earlier work
[9] = test system: Arabidopsis thaliana; conditions: in vivo; cited from earlier work
[10] = test system: HSV-2; conditions: tissue culture and animals; cited from earlier work
[11] = test system: HIV-1, Hepatitis C and numerous other viruses as well as the host cells; assay: Fate of virus-infected host cells after treatment; type: cell-based
Description: APOPTOSIS. Apoptosis is a morphological pattern of cell injury and an important mode of cell death (Robbins, Pathological Basis of Disease, 1999, 6th Ed). Apoptosis shares and overlaps common mechanisms with necrosis. […] This form of cell death is designed to eliminate defective, unwanted and damaged cells. For example, the inventors have shown that cells infected by Herpes Simplex Virus 1 (HSV; labialis) and HSV-2 genitalis are destroyed together with the host cells that they infected by apoptosis when exposed to pyridine carboxylates (Fernandez-Pol, Anticancer Res. 2002). […] Thus, the inventors believes that when host cells of animals or plants are infected by pathogenic viruses, unless the treatment is extremely quickly, the host cells and the virus will be destroyed. In fact, host cells defective, mutated, and reservoirs for the novo synthesis of viruses are unwanted host cells and must be eliminated in many instances to allow the survival of the organism.

[12] = test system: Common ornamental plant cells infected by viruses; assay: Treatment of virus-infected ornamental plants; conditions: viral strains not determined
[13] = test system: virally-transformed cells; conditions: cited from earlier work
[14] = test system: normal cells (NRK, BALB 3T3); conditions: cited from earlier work
[15] = test system: NRK cells; conditions: cells treated with picolinic acid; cited from earlier work
[16] = test system: rice; conditions: in vivo; cited from earlier work
[17] = test system: cells (iron incorporation); conditions: cited from earlier work
[18] = test system: marker defense genes PR-1, PR-2 and PDF1.2; conditions: dose-dependent and time dependent; cited from earlier work

What does the source list for `O=C(O)CN(CCN(CC(=O)O)CC(=O)O)CC(=O)O` [EDTA]?
disintegration of viral membranes and release of Zinc Finger Proteins [1]: partial disintegration of the viral membranes; disintegration of viral membranes (release of reverse transcriptase) [2]: partial disintegration of viral membranes

Which results are given for `O=C(O)CN(CCOCCOCCN(CC(=O)O)CC(=O)O)CC(=O)O` [EGTA]?
disintegration of viral membranes and release of Zinc Finger Proteins [1]: partial disintegration of the viral membranes; disintegration of viral membranes (release of reverse transcriptase) [2]: partial disintegration of viral membranes

With `COS(C)(=O)=O` [MMS, Methyl Methane Sulphonate] as the compound, how does the “growth and size of the plant” value ([3]; ars27A mutant, 3 weeks) read?
Its value is “strongly inhibited”.

What about the “growth and size of the plant” value ([3]; wild type, same concentrations) of the same compound?
The value was “not affecting”.

For `NC(=O)c1cccnc1` [Nicotinamide, reference compound], which “effect on cell growth or apoptosis” value ([4]; at 48 h) is on record?
Its value is “no effect”.

For `NC(=O)c1ncn([C@@H]2O[C@H](CO)[C@@H](O)[C@H]2O)n1` [Virazole (Ribavirin)], which “use against tomato spotted wilt virus” value [5] is on record?
The value was “successfully used”.

Which results are given for `CCCCc1ccc(C(=O)O)nc1` [fusaric acid, 5-butyl picolinic acid]?
germination of the angiosperm parasite [6]: inhibited; removal of zinc (radioactive Zn65) from CCCC zinc finger of MPS-1 [7]: remove radioactive Zn65 from MPS-1; also recorded: remove zinc; zinc dependent binding of recombinant MPS-1 to DNA (gel shift assays) [7]: inhibit the zinc dependent binding of recombinant MPS-1 to DNA; efficacy against viral infection by HSV-1 [8]: effective; concentration eliciting plant defense responses without toxic effects [9]: 100 nM; concentrations that reduced root growth and induced membrane hyperpolarization/depolarization [9]: > 500 µM; efficacy against viral infection by HSV-2 [10]: effective; fate of viruses and host cells after treatment [11]: Death by apoptosis; outcome of treatment of virus-infected ornamental plants [12]: positive results

For `O=C(O)c1ccccn1` [picolinic acid, 2-pyridine carboxylic acid], which “cell cycle arrest, Flow Microfluorometric Analysis of DNA” value ([13]; Kirsten sarcoma virus transformed cells) is on record?
The value was “G1 phase”.

What about the “cytotoxicity in transformed cells” value ([13]; longer exposure/further incubation) of the same compound?
The value was “cytotoxicity and cell death was observed in all transformed cells; also recorded: cell death by apoptosis was observed in all transformed cells”.

What about the “toxicity to normal cells” value [14] of the same compound?
The value was “no toxic effects”.

What about the “potency of prostaglandin E1 in elevating cyclic AMP” value [15] of the same compound?
The value was “two to five times more potent”.

And the “removal of zinc (radioactive Zn65) from CCCC zinc finger of MPS-1” value [7]?
Its value is “remove radioactive Zn65 from MPS-1; also recorded: remove zinc”.

What about the “zinc dependent binding of recombinant MPS-1 to DNA (gel shift assays)” value [7] of the same compound?
Its value is “inhibit the zinc dependent binding of recombinant MPS-1 to DNA”.

What about the “hypersensitive response (HR)” value [16] of the same compound?
Its value is “elicit the hypersensitive response (HR)”.

What about the “incorporation of iron into the cells” value [17] of the same compound?
The value was “inhibits incorporation of iron into the cells”.

What about the “removal of radioiron from the cells” value [17] of the same compound?
Its value is “effectively removes radioiron from the cells”.

What about the “mitochondrial cytochrome c release” value ([4]; 3 mM picolinic acid) of the same compound?
The value was “released cytochrome c”.

What about the “fate of viruses and host cells after treatment” value [11] of the same compound?
Its value is “Death by apoptosis”.

What about the “induction of marker defense genes PR-1, PR-2 and PDF1.2” value [18] of the same compound?
The value was “all induced”.

What about the “outcome of treatment of virus-infected ornamental plants” value [12] of the same compound?
The value was “positive results”.
